{"source": "paper PMC5686072", "about": "“Targeting SxIP-EB1 interaction: An integrated approach to the discovery of small molecule modulators of dynamic binding sites” (Scientific Reports, 2017)", "note": "Where a SMILES comes first, the peptide text is derived from it."}
{"biological_target": "T1, EB1_191–260 (EB1c) (Homo sapiens, UniProt Q15691)", "T1 construct": "Human EB1 (Uniprot code Q15691), residues 191–260, was cloned into pOPINS vector; SUMO fusion protein (cleaved yes); 6xHis (cleaved yes); made in house; host or cells: E. coli BL21 Star (DE3)", "T1 sequence (Q15691 191-260)": "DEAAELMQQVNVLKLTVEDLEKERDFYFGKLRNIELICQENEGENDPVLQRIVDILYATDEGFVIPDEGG", "experiment": "1H-15N HSQC NMR ligand screening / titration (chemical shift perturbations, KD by curve fitting)", "assay_type": "binding", "details": "NMR titration curves (Tyr247) fitted to two-state exchange model; 50 μM protein; read-out: estimated KD", "excerpt": "The ^1H and ^15N resonances were fully assigned using complementary pairs of triple resonance NMR spectra - CBCA(CO)NH/HNCACB for Cα and Cβ and HNCO/HN(CA)CO for CO connectivities.\nLigand-induced chemical shift perturbations (CSPs) in NH resonances on addition of the ligand were used as an indication of ligand binding and location of the binding site.\nNMR spectra were collected on Bruker Avance III 600 and 800 MHz spectrometers equipped with CryoProbes. Spectra were processed with TopSpin (Bruker) and analysed using CCPNmr Analysis[35]. ^1H-^15N HSQC ligand screening ^1H-^15N- Heteronuclear Single Quantum Coherence (HSQC) experiments for ligand binding screening were performed using 0.05 mM ^15N-labelled EB1 in 20 mM phosphate pH 6.5, 50 mM NaCl, 0.5 mM TCEP, 0.02% (w/v) NaN3 in the absence or presence of ligands. To eliminate any small shifts induced by the small amounts of DMSO used to dissolve the compounds, DMSO concentration was kept constant in all experiments.\nThe dotted lines connect the values calculated for the best-fit curves at the titration points. Ligand concentration corresponds to the excess of ligand (e.g. 10-fold excess, 20-fold excess) to the protein concentration (50 μM). Binding constants were evaluated by fitting the experimental data to the […]\n∆δ = ∆δ {([P] + [L] + K ) − [([P] + [L] + K )2 − 4[P] [L] ]1⁄2}⁄2[P] […]", "units": {"Kd": "mM"}}
{"smiles": "C[C@@H](Sc1nnnn1C1CCCC1)C(=O)NCc1ccco1", "note": "[1a]", "Kd": "10 ± 3"}
{"smiles": "Cc1c(NC(=O)[C@@H](C)Sc2nnnn2C2CCCC2)c(=O)n(-c2ccccc2)n1C", "note": "[1d]", "Kd": "6 ± 1"}
{"smiles": "CC[C@H](C)[C@H](NC(=O)[C@H](CCCCN)NC(=O)[C@@H](N)CO)C(=O)N1CCC[C@H]1C(=O)O", "note": "[SKIP, reference compound] (H-SKIP-OH)", "Kd": "14 ± 1.9"}
